{
  "source": "patent US9157908B2",
  "about": "“Chitosan-alginate scaffold cell culture system and related methods” (University of Washington through its Center for …, priority 2011, dated 2015)",
  "key": {"HepG2 cells": {"tested_on": "HepG2 cells", "assay": "Cellular response to doxorubicin, cell viability by Alamar Blue assay", "assay_type": "cell-based, human", "details": "for LD50 for doxorubicin: 72 hours post treatment; for viability at 1 µM: Homo sapiens, read-out: viability relative to untreated cells", "procedure": "(§1) Proliferation of cells cultured on 2D wells, Matrigel matrix, and CA scaffolds was determined using the Alamar Blue assay following the manufacturer's protocol. Briefly, cells cultured on 2D wells and 3D scaffolds were washed with D-PBS before adding 1 mL of Alamar Blue solution (10% Alamar Blue in fully supplemented phenol red free DMEM or MEM) to each well.\n(§2) For human hepatocellular carcinoma cells, after 2 hrs the Alamar Blue solution was transferred to a 96-well plate to obtain fluorescent values on a SpectraMax M2 microplate reader (Molecular Devices, Sunnyvale, Calif.) at 550 nm excitation, 590 nm emission. Standard curves were generated by seeding cells counted using a hemocytometer onto cell culture materials in triplicate, and performing Alamar Blue assay to generate a plot of linear regression of fluorescent values vs. cell number for each material. The cell number in an experimental sample was calculated based on the standard curve. No background fluorescence was generated by CA scaffolds. Cells were again washed with D-PBS to remove Alamar Blue solution and fresh fully-supplemented media were added to each well.\n(§3) For human hepatocellular carcinoma cell-containing scaffolds, after 10 days of culture, media from cell cultures were replaced with 1 mL fully supplemented cell culture media containing various concentrations of doxorubicin. Cells were induced with doxorubicin containing media for 24 h, after which media was replaced with standard fully supplemented cell culture media. Cell viability was assessed using the Alamar Blue assay following the manufacturer's protocol as described above. LD50 was estimated via a polynomial approximation."}, "PLC/PRF/5 (PLC) cells": {"tested_on": "PLC/PRF/5 (PLC) cells", "assay": "Cellular response to doxorubicin, cell viability by Alamar Blue assay", "assay_type": "cell-based, human", "details": "72 hours post treatment", "procedure": "as §1, §2, §3"}, "[1]": {"details": "cited from earlier work"}},
  "note": "Where two headings read alike, the source gives them in different places.",
  "data": [
    {"smiles": "COc1cccc2c1C(=O)c1c(O)c3c(c(O)c1C2=O)C[C@@](O)(C(=O)CO)C[C@@H]3O[C@H]1C[C@H](N)[C@H](O)[C@H](C)O1", "note": "[doxorubicin]", "values": [
      {"measurement": "LD50 for doxorubicin", "setting": "HepG2 cells; HepG2 cells cultured in 2D substrate", "result": "0.45 ± 0.18", "unit": "µM"},
      {"measurement": "LD50 for doxorubicin", "setting": "HepG2 cells; HepG2 cells in CA", "result": "13 ± 1.7", "unit": "µM"},
      {"measurement": "LD50 for doxorubicin", "setting": "HepG2 cells; HepG2 cells in Matrigel", "result": "7 ± 2.2", "unit": "µM"},
      {"measurement": "viability at 1 µM", "setting": "HepG2 cells; HepG2, 48 h", "result": "86.7 ± 2.4", "unit": "%"},
      {"measurement": "viability at 1 µM", "setting": "HepG2 cells; HepG2, 72 h", "result": "88.6 ± 2.75", "unit": "%"},
      {"measurement": "LD50 of doxorubicin", "setting": "PLC/PRF/5 (PLC) cells; PLC cells CA cultured", "result": "4 ± 1.4", "unit": "µM"},
      {"measurement": "LD50 of doxorubicin", "setting": "PLC/PRF/5 (PLC) cells; PLC cells Matrigel cultured", "result": "3 ± 1.1", "unit": "µM"},
      {"measurement": "LD50 of doxorubicin", "setting": "PLC/PRF/5 (PLC) cells; PLC cells cultured on 2D surfaces", "result": "0.2 ± 0.13", "unit": "µM"},
      {"measurement": "clearance from plasma", "setting": "[1]; 48 hours post treatment", "result": "nearly complete clearance"},
      {"measurement": "peak plasma concentration", "setting": "[1]; standard dosing schemes, minutes after treatment", "result": "approximately 15 μM"}
    ]}
  ]
}
